# Reference: US20260294770A1, “FORMULATIONS OF NARINGENIN” (DEBUT BIOTECHNOLOGY, INC., priority 2023, published 2026)
# Entries after “also recorded” stand apart in the source; their conditions may differ.
# Tests used:
# [1] = Solubility of naringenin in various solvents; assay type: physicochemical
# Method: The invention recognizes that the solvent used for preparing naringenin compositions should be any solvent acceptable to be used in cosmetic formulations. In certain embodiments of the invention, naringenin is dissolved in a solvent selected from a group consisting of: dimethyl isosorbide, ethoxydiglycol, isopropyl lauryl sarcosinate, pentylene glycol, propanediol, 1,2-hexanediol, and/or butylene glycol. In certain preferred embodiments, naringenin is dissolved in dimethyl isosorbide. In certain embodiments, naringenin is dissolved in isopropyl lauryl sarcosinate. In certain embodiments, naringenin is dissolved in ethoxydiglycol. In certain embodiments, the solvent is a glycol. In certain embodiments, the glycol is selected from a group consisting of pentylene glycol, butylene glycol, and any combination thereof. In certain embodiments, the solvent is selected from a group consisting of: phenylpropanol, 1,2-hexanediol, propanediol, isopentyldiol, 1,2 heptanediol, and any combination thereof.
# Table 1 provides the solubility data for naringenin in several solvents. […]
# LCE5A = test: Upregulation of gene expression and/or activity, 1% naringenin: LCE5A
# Source text: (§1) In certain embodiments, administration of a composition comprising naringenin leads to up-regulation of LCE5A, KRT77, ALOXE3, KRT1, HPGD, MUCL1, CASP14, WFDC12, KRT10, DNASE1L2, IL37, SERPINB12, HAL, UPK1A, CALML5, LCE2B, and/or MIR205. In certain embodiments, administration of a composition comprising naringenin leads to down-regulation of CCL11, CSF2, IL23A, IL11, BMP6, IL13RA2, C2CD4A, NR4A2, C2CD4B, FGF2, FARP4, GDF15, THBS1, HSPA1A, PTGS2, and/or DKK1. Tables 10 and 11 provide data for upregulation and downregulation respectively of certain genes after administration of compositions comprising 1% naringenin.
# Late cornified envelope protein 5A (LCE5A) is involved in formation of outer skin protective barrier. LCE5A may also be involved in keratinization. In certain embodiments, upregulation of expression and/or activity of LCE5A results in improved formation of the outer skin protective barrier. Thus, administration of compositions comprising naringenin, which leads to upregulation of LCE5A, results in increased skin barrier strength. In certain embodiments, the administration of composition comprising naringenin results in at least about 20 to about 50-fold upregulation of expression and/or activity of LCE5A. […]
# ALOXE3 = test: Upregulation of gene expression and/or activity, 1% naringenin: ALOXE3
# Source text: as §1
# Arachidonate lipoxygenase 3 (ALOXE3) is involved in formation of epidermis lipids. In particular, ALOXE3 helps add an oxygen molecule to certain fatty acids to produce substances called fatty acid hydroperoxides. The enzyme encoded by ALOXE3 is a hydroperoxide isomerase that synthesizes a unique type of epoxy alcohol (8R-hydroxy-11R,12R-epoxyeicosa-5Z,9E,14Z-trienoic acid) from 12R-hydroperoxyeicosatetraenoic acid (12R-HPETE). This epoxy alcohol can activate the nuclear receptor peroxisome proliferator-activated receptor alpha (PPARalpha), which is implicated in epidermal differentiation. Loss of function of the enzyme encoded by this gene results in ichthyosis, implicating the function of this gene in the differentiation of human skin. […]
# MUCL1 = test: Upregulation of gene expression and/or activity, 1% naringenin: MUCL1
# Source text: as §1
# IL11 = test: Downregulation of gene expression and/or activity, 1% naringenin: IL11
# Source text: as §1
# Interleukin 11 (IL11) plays a role in the inflammatory pathway and in certain pathways that may be involved in cancer. In certain embodiments of the invention, downregulation of IL11 leads to an anti-inflammatory activity and/or anticancer activity. In certain embodiments, the administration of composition comprising naringenin results in at least about 10 to about 20-fold downregulation of expression and/or activity of IL11. In certain embodiments, the administration of composition comprising naringenin results in at least about ten (10) fold downregulation of expression and/or activity of IL11.
# FGF2 = test: Downregulation of gene expression and/or activity, 1% naringenin: FGF2; conditions: negative = downregulation
# Source text: as §1
# FABP4 = test: Downregulation of gene expression and/or activity, 1% naringenin: FABP4
# Source text: as §1
# Fatty acid binding protein 4 (FABP4) plays a role in metabolic inflammation from the fat tissue. FABP4 acts at the interface of metabolic and inflammatory pathways in adipocytes and macrophages and plays important roles in the development of insulin resistance, diabetes mellitus, and atherosclerosis. In certain embodiments, downregulation of FABP4 leads to reduced metabolic inflammation from the fat tissue signaling. In certain embodiments, the administration of composition comprising naringenin results in at least about 2 to about 10-fold downregulation of expression and/or activity of FABP4. In certain embodiments, the administration of composition comprising naringenin results in at least about five (5) fold downregulation of expression and/or activity of FABP4.
# superoxide dismutase = conditions: consumed orally; cited from earlier work
compound,measurement,setting,value
"O=C1C[C@@H](c2ccc(O)cc2)Oc2cc(O)cc(O)c21 [naringenin, (2S)-5,7-Dihydroxy-2-(4-hydroxyphenyl)-2,3-dihydro-4H-1-benzopyran-4-one]",Solubility (in words),[1]; in Helianthus Annuus (Sunflower) Seed Oil / sunflower oil,insoluble in Helianthus Annuus (Sunflower) Seed Oil; also recorded: not soluble in sunflower oil
same,Solubility (in words),[1]; in water,poorly soluble or insoluble in water
same,Naringenin Solubility,"[1]; solvent: 1,2 heptanediol",2.50 % w/w
same,Naringenin Solubility,"[1]; solvent: 1,2 hexanediol",2.50 % w/w
same,Naringenin Solubility,"[1]; solvent: 1,2 propanediol",0.00 % w/w
same,Naringenin Solubility,"[1]; solvent: 3-methyl-1,3-butanediol",0.00 % w/w
same,Naringenin Solubility,[1]; solvent: Butylene glycol,2.50 % w/w
same,Naringenin Solubility,[1]; solvent: C9-12 alkane,0.00 % w/w
same,Naringenin Solubility,[1]; solvent: C15-19 alkane,0.00 % w/w
same,Naringenin Solubility,[1]; solvent: Capric/caprylic triglyceride,0.00 % w/w
same,Naringenin Solubility,[1]; solvent: Di(propylene glycol) dibenzoate,0.00 % w/w
same,Naringenin Solubility,[1]; solvent: Dimethyl isosorbide,15.00 % w/w
same,Naringenin Solubility,[1]; solvent: Ethoxydiglycol,20.00 % w/w
same,Naringenin Solubility,[1]; solvent: Isoamyl laurate,0.00 % w/w
same,Naringenin Solubility,[1]; solvent: Isopentyldiol,2.50 % w/w
same,Naringenin Solubility,[1]; solvent: Isopropyl lauryol sarcosinate,10.00 % w/w
same,Naringenin Solubility,[1]; solvent: Isopropyl myristate,0.00 % w/w
same,Naringenin Solubility,[1]; solvent: Neopentyl glycol diethylhexanoate,0.00 % w/w
same,Naringenin Solubility,[1]; solvent: Oleyl alcohol,0.00 % w/w
same,Naringenin Solubility,[1]; solvent: Pentylene glycol,2.50 % w/w
same,Naringenin Solubility,[1]; solvent: Phenylpropanol,5.00 % w/w
same,Naringenin Solubility,[1]; solvent: Propanediol,2.50 % w/w
same,Naringenin Solubility,[1]; solvent: Squalene,0.00 % w/w
same,Naringenin Solubility,[1]; solvent: Tri C12-C13 alkyl citrate,0.00 % w/w
same,Naringenin Solubility,[1]; solvent: Tributyl citrate,0.00 % w/w
same,Naringenin Solubility,[1]; solvent: Tributyl-O-acetylcitrate,0.00 % w/w
same,Naringenin Solubility,[1]; solvent: Triethyl O-acetylcitrate,0.00 % w/w
same,Naringenin Solubility,[1]; solvent: Triethyl citrate,0.00 % w/w
same,Naringenin Solubility,[1]; solvent: Triisostearin,0.00 % w/w
same,Naringenin Solubility,[1]; solvent: jojoba oil,0.00 % w/w
same,Naringenin Solubility,[1]; solvent: sunflower oil,0.00 % w/w
same,Fold-increase in expression and/or activity of LCE5A,LCE5A,~33 fold
same,Fold-increase in expression and/or activity of ALOXE3,ALOXE3,~12 fold
same,Fold-increase in expression and/or activity of MUCL1,MUCL1,11 fold
same,fold downregulation in expression and/or activity of IL11,IL11,~14 fold
same,Fold-increase (downregulation table) FGF2,FGF2,−7 fold
same,fold downregulation in expression and/or activity of FABP4,FABP4,~7 fold
same,Fold-increase (downregulation table) FABP4,FABP4; negative = downregulation,−7 fold
same,Superoxide dismutase,superoxide dismutase,increase
